pIC50: −log10 of the molar value. Non-standard residues stand in square brackets, D forms with d. Phg = N[C@H](C(=O)O)c1ccccc1
The substances below were run against T1, elastase (Sus scrofa, UniProt P00772) (assay: Elastase inhibition assay (EnzChek Elastase Assay Kit, DQ Elastin substrate)). Conditions: peptides at 0.1 mM, pre-incubated 1 hour with 0.4 unit/mL elastase; DQ Elastin 25 μg/mL, 2 h; normalized to baseline.
T1 construct: purchased Molecular Probes
Assay type: biochemical
Protocol: The peptides were resuspended in water in the presence of 0.5% DMSO. The assay was conducted on black microplates with 96 wells using the EnzChek® Elastase Assay Kit (Molecular Probes). For this purpose, the peptides were pre-incubated at 0.1 mM for 1 hour with 0.4 unit/mL of elastase at room temperature with moderate stirring, after which the conjugated substrate was added to fluorescein (DQ™ Elastin) at a final concentration of 25 μg/mL and reactions were incubated for 2 h at room temperature with stirring and protected from light. The substrate, whose fluorescence is inhibited, is digested by elastase to release fluorescent fragments which are monitored by fluorescence with a FLUOstar galaxy reader (BMG LabTechnologies) using 485 nm filters for excitation and 530 nm filters for emission.
Inhibition values were normalized with respect to baseline values of average inhibition.

T1 sequence (P00772 27-266): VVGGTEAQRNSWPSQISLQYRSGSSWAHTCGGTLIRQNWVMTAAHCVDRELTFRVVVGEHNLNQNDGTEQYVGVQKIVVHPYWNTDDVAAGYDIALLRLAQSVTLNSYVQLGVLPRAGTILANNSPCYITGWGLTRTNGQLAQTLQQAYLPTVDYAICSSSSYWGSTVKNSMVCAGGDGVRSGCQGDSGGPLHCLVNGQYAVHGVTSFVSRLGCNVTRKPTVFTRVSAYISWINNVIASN

Substance | Elastase inhibition percentage (% inhibition) [%]
Ac-L-Arg-Phg-L-Trp-Phg-OH | 90.3
Ac-L-Nle-Phg-L-Trp-Gly-OH | 69.6
Ac-R[Phg]VG-OH | 81.4
Ac-R[Phg]WG-OH | 66.9
Ac-[Phg][Phg]VG-OH | 64.2
Palm-L-Arg-Phg-L-Trp-Phg-NH2 | 57.1

The remaining lines, values ahead:

Elastase inhibition percentage (% inhibition) [%] | Substance
53.7 | Ac-L-Arg-Phg-L-Trp-Phg-NH—(CH2)15—CH3
82.3 | Ac-L-Arg-Phg-L-Val-Phg-OH
90.0 | Ac-L-Nle-Phg-L-Trp-Phg-OH
62.7 | Ac-L-Nle-Phg-L-Val-Gly-OH
73.8 | Ac-L-Nle-Phg-L-Val-Phg-OH
45.1 | Ac-Phg-L-Trp-Phg-OH
65.0 | Ac-Phg-Phg-L-Trp-Gly-OH
84.2 | Ac-Phg-Phg-L-Trp-Phg-OH
76.1 | Ac-Phg-Phg-L-Val-Phg-OH

The substances below were run on Human dermal fibroblasts (assay: Collagen synthesis stimulation assay (secreted Collagen Type I by ELISA)). Conditions: peptides at 15 μg/ml, 48 h, medium analysed by ELISA; normalized to vehicle negative control.
Assay type: cell-based
Protocol: Human dermal fibroblasts were grown until confluence in MI06 medium supplemented with specific growth factors for fibroblasts. Then, they were strypsinized and seeded at 5×10^4 cells/well in 24-well plates. After 24 h of incubation at 37° C. in 5% CO2 atmosphere, fresh medium was added with scalar dilutions of the peptides at 15 μg/ml or with vehicle as negative control. Cells were incubated for 48 additional hours, after which medium was collected.
The analysis of the amount of secreted Collagen Type I was performed by means of an ELISA assay. Briefly, 96-well plated were coated with 50 μL per well of the previously collected medium and allowed to adsorb overnight at 4° C. in a humidified atmosphere. Then the plates were washed 3 times with PBS (+0.05% Tween-20) and blocked for 1 h with 3% BSA. After blocking, the plates were treated with an anti-Collagen Type I antibody (1:1000 in PBS, 0.05% Tween-20, 1% BSA) for 2 h. After this incubation, the secondary antibody (goat anti-mouse IgG-HRP antibody, Molecular Probes, 1:1000 in PBS, 0.05% Tween-20, 1% BSA) was added. Plates were incubated with […] substrate for 30 min and the reaction was stopped by adding 3 M H2SO4. Absorbance at 490 nm was read using a microplate reader and collagen concentration determined using a linear regression standard curve for Collagen Type I. Values were normalized in respect to the collagen values for the negative control experiment and the increase in the Collagen Type I was calculated for all the treatments.

Substance | Increase of Collagen Type I by treatment with the peptides [%]
H-L-Arg-Phg-L-Trp-Phg-OH | 99
H-L-Arg-Phg-L-Val-Gly-OH | 16
H-L-Arg-Phg-L-Val-Phg-OH | 18

What follows are substances tested against T2, Human neutrophil elastase (Homo sapiens, UniProt P08246) (assay: Human elastase inhibition assay (fluorogenic substrate MeOSuc-Ala-Ala-Pro-Val aminomethyl coumarin)). Conditions: 0.2 μg/ml protease, peptides 0.05-2 mM, 1 hour preincubation, substrate 25 μg/mL, 2 h; read-out: IC50 (minimum inhibitory concentration of peptides against human elastase).
T2 sequence (P08246 30-267): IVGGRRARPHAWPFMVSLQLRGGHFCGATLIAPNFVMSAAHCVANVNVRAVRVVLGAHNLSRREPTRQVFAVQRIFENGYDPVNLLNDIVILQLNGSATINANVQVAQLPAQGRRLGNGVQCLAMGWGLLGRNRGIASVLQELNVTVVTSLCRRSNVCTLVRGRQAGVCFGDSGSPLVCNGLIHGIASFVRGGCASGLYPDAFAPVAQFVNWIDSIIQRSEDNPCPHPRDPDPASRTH
Assay type: biochemical
Protocol: Human neutrophil elastase was reconstituted at 5 μg/mL in 50 mM sodium acetate, 200 mm NaCl, pH 5.5 buffer. 0.2 μg/ml of protease were preincubated with the peptides at a final concentration of 0.05-2 mM in a black microplate with 96 wells for 1 hour at room temperature. After preincubation, 25 μg/mL of substrate (MeOSuc-Ala-Ala-Pro-Val aminomethyl coumarin) were added to the wells and the samples were incubated for 2 h at room temperature and protected from light. The fluorescence released by digestion of the substrate was measured with an automated multiplate fluorescence reader, exciting at 370 nm and reading at 460 nm.
The results were corrected from the baseline fluorescence value in the absence of elastase and product, and were normalized with respect to the fluorescence of the control, and the minimum inhibitory concentration for each of the peptides was determined.

Substance | pIC50
H-L-Arg-Phg-L-Trp-Phg-OH | 3.99
H-L-Arg-Phg-L-Val-Gly-OH | 3.39
H-L-Arg-Phg-L-Val-Phg-OH | 4.03
